The target in one assay is T1, human LAT1 (SLC7A5) (Homo sapiens, UniProt Q01650).
T1 construct: host or cells: MDCK-II
The experiment in a line: LAT1-mediated cellular uptake in transfected MDCK-II cells. As to conditions: HBSS pH 7.4, 3 min, 37 °C. It counts as cell-based. The protocol:
Transport studies with human PepT1 (SLC15A1), LAT1 (SLC7A5) and MCT1 (SLC16A1) were conducted in MDCK-II cells expressing the human transporter or control cells expressing a vector with Green Fluorescence Protein. Cells were transfected using a proprietary, transient transfection system (OPTI-EXPRESSION Technology, BioIVT). The results from the control cells were used to correct for substrate permeation by routes other than the transporter being investigated in the study. […] Specifically, Net Transporter Mediated Substrate Uptake (pmol/min/cm^2) = (Cellular accumulation in the presence of the transporter) − (Mean cellular accumulation in the absence of the transporter). MDCK-II cells were maintained in DMEM with low glucose and 10% FBS. Cells were used at passages up to 40 were seeded at 60,000 ± 10,000 cells/well on 96-well plates approximately 24 h before transfection, and transport assays were performed approximately 48 h after transfection. […]
Transport studies with PepT1 were conducted in 96-well cell culture plate with wells containing a monolayer of MDCK-II cells grown on a permeable support and a corresponding 96-well receiver tray. […] Then a 30-µL sample was taken and mixed with 200 µL of scintillation fluid and scintillation counted (1450 Microbeta, Perkin-Elmer). […]

The next assay deals with T2, Human OAT3 (SLC22A8) (Homo sapiens, UniProt Q8TCC7).
T2 construct: host or cells: HEK-293
T2 sequence (Q8TCC7 1-542): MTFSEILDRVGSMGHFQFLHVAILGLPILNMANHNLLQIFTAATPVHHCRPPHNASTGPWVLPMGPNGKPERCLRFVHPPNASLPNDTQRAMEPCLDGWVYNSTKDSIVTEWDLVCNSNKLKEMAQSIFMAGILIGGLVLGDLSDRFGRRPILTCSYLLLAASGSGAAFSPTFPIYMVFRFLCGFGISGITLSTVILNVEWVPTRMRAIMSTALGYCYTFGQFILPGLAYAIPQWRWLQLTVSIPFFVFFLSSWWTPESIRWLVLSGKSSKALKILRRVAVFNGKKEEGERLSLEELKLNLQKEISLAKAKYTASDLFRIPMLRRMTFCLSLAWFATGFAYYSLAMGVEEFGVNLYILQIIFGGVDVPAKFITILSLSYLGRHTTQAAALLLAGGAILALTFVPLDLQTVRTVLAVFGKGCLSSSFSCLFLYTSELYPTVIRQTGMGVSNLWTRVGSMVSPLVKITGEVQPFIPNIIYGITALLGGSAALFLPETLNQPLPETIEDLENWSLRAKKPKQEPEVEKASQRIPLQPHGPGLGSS
In words: Inhibition of OAT3 uptake of probe substrate estrone-3-sulfate in HEK-293 cells. It counts as cell-based. The note with it: probe estrone-3-sulfate 2 µM; positive control diclofenac 100 µM. The protocol:
Cells were grown in DMEM (Gibco 4196, high glucose, without sodium pyruvate) supplemented with MEM non-essential amino acids and 10% fetal bovine serum. Cells were re-fed with fresh medium after attachment (4–6 h post-seeding). Cell were plated at a density of 4 × 10^5/well in 24-well plates coated with poly-D-lysine. Transporter assays were conducted in 400 µL of HBSS supplemented with 10 mM Hepes, pH 7.4
The known probe substrates used as positive controls were 3 μM chlorothiazide for OAT1, 2 μM estrone-3-sulfate for OAT3, 10 µM [^3H]gabapentin for LAT1, 50 µM [^3H]Gly-Sar for PepT1, 500 µM thiophene-2-glyoxylic acid for MCT1. The known inhibitors used as controls for each transporter were 100 μM diclofenac for OAT1 and OAT3, 10 µM JPH203 for LAT1 and 200 µM losartan for PepT1. All incubations were in triplicate and contained 1% (OAT1 and OAT3) or 0.5% DMSO (LAT, PepT1 and MCT1). […]
[I] is the inhibitor concentration and IC50 is the inhibitor concentration where the remaining activity is at the midpoint between the Top and Bottom. […] In inhibition experiments, the IC50 is not equivalent to affinity because it is dependent on the concentrations of the substrate, the inhibitor and affinity; therefore, we assumed competitive inhibition, and calculated affinity of inhibition (Ki) with the Cheng-Prusoff equation[49].

T1 sequence (Q01650 whole entry): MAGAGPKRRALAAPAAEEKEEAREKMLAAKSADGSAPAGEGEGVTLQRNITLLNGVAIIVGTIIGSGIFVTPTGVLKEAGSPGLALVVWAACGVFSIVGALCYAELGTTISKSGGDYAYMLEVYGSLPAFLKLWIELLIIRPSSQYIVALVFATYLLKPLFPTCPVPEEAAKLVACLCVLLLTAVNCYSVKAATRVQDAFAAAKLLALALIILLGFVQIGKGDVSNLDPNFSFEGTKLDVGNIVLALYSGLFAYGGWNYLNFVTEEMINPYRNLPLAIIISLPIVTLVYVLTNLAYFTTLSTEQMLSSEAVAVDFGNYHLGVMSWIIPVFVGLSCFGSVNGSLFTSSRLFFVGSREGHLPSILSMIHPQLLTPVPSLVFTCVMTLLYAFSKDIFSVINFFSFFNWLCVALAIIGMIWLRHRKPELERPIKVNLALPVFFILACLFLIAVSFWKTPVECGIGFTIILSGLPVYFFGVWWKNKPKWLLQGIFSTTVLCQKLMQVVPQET
T1 sequence (P08195 102-630 partner): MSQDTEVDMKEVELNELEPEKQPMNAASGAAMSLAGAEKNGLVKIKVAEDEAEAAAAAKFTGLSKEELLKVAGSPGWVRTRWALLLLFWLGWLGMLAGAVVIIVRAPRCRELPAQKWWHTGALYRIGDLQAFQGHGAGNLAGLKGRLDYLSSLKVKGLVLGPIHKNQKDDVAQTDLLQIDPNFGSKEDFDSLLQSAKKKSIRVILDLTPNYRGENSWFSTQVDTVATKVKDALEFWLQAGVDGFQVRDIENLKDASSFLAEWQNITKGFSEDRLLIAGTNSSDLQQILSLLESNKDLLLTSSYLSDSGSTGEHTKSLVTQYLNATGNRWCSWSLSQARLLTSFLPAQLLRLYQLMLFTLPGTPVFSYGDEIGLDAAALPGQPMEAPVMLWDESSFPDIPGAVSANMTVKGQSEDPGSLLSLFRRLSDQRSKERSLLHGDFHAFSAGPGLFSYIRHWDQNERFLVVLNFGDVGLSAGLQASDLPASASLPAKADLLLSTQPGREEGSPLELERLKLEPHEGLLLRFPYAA

As a reminder, the IC50 is the concentration needed to halve the response being measured. Read a high IC50 as a need for much substance. With `CC(=O)N[C@@H](CC(C)C)C(=O)O` [N-acetyl-L-leucine], the “substrate of LAT1 (uptake)” value on human LAT1 (SLC7A5) is “not transported”; on human LAT1 (SLC7A5) (listed as N-acetyl-leucine) it was “not a substrate”. On Human OAT3 (SLC22A8), this molecule registered a half-inhibitory concentration (IC50) of 700 µM.

The record behind these values is PMC8338929, “Acetylation turns leucine into a drug by membrane transporter switching” (Scientific Reports, 2021).
